Measured values published in publication PMC11882969 (Nature Communications, 2025).

Legend:
[1] = target: T1, CB1 (rCB1) (Rattus norvegicus, UniProt P20272); test: Single-point radioligand displacement screen; type: binding; conditions: 10 µM, 1 µM or 300 nM by cell colour (not visible)
[2] = target: T1, CB1 (rCB1); test: Radioligand competition binding, [3H]-CP-55,940, rat brain membranes; conditions: rCB1

T1 sequence (P20272 whole entry): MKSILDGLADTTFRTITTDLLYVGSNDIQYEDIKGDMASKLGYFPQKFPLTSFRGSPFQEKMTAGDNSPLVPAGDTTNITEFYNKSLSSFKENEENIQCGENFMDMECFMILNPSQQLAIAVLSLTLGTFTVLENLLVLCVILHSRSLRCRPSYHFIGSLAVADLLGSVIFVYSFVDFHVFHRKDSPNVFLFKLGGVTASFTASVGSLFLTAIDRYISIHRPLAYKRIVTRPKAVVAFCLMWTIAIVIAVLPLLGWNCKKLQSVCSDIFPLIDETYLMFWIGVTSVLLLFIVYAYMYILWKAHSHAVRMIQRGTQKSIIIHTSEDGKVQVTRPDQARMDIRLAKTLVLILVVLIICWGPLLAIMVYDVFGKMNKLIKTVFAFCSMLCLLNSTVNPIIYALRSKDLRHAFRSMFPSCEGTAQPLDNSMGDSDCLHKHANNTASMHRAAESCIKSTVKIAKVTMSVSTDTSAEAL

COC(=O)C(NC(=O)c1cc(C)n(-c2cccc(C#N)c2)n1)c1ccsc1 (centres unmarked) [‘31604]
% 1H-CP-55,940 displacement (mean) from single point screen [1]: 41.46%
pKi [95% CI] [2]: 6.1 [6.0 – 6.2]
